# Laboratory results taken from ChEMBL document CHEMBL4421732, “Use of small molecule inhibitors targeting EYA tyrosine phosphatase” (2017).
# Active and inactive are the calls of the source. No cut-off for these calls is given here.
# Target: T1, Protein phosphatase EYA2 (Homo sapiens) (UniProt O00167)
# T1 sequence (whole entry): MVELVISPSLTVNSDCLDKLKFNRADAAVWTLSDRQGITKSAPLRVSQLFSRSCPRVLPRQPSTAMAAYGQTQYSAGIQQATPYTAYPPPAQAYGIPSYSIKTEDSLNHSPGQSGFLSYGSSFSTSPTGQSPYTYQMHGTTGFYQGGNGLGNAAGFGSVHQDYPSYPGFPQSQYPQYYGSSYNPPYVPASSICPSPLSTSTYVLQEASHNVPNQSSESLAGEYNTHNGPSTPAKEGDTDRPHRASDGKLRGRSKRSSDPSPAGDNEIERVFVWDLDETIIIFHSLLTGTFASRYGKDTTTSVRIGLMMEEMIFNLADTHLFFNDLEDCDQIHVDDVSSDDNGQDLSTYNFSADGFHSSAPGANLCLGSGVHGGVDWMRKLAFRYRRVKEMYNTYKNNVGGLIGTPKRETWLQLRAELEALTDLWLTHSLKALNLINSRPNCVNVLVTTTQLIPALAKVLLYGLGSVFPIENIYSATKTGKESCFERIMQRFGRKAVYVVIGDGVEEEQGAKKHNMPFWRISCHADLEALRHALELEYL
# Test: Inhibition of EYA2 (unknown origin) stably transfected in human MCF10A cells assessed as inhibition of cell migration at 7.5 uM by transwell assay
# Format: cell-based
# Settings: not given
row,inhibition,SMILES
1,Active,CCc1oc2ccccc2c1C(=O)c1cc(Br)c(O)c(Br)c1
2,Active,CCCCc1oc2ccccc2c1C(=O)c1ccc(O)cc1
3,Active,CCc1oc2ccccc2c1C(=O)c1ccc(O)cc1

# System: Aorta
# Test: Inhibition of micro-vessel branching in […] mouse aorta cultured in collagen gels assessed as reduction in aortic ring sprouting at 7.5 uM by aortic ring sprouting assay
# Format: functional, tissue-based
# Settings: not given
row,SMILES,inhibition
1,CCc1oc2ccc(O)cc2c1C(=O)c1cc(Br)c(O)c(Br)c1,Dose-dependent effect
2,CC(O)c1oc2ccccc2c1C(=O)c1cc(Br)c(O)c(Br)c1 (configuration not stated),Dose-dependent effect
3,CC(O)CCc1oc2ccccc2c1C(=O)c1cc(I)c(O)c(I)c1 (configuration not stated),inactive
4,Cc1oc2ccccc2c1C(=O)c1ccc(O)c(I)c1,Dose-dependent effect
5,CCCCc1oc2ccccc2c1C(=O)c1cc(I)c(O)c(I)c1,Dose-dependent effect
6,CCc1oc2cc(O)ccc2c1C(=O)c1cc(Br)c(O)c(Br)c1,Dose-dependent effect
7,Cc1oc2ccccc2c1C(=O)c1cc(I)c(O)c(I)c1,Dose-dependent effect

# Species: Danio rerio
# Test: Induction of vasculature defects in 5.25 hpf stage FLK1-GFP transgenic Zebrafish embryos assessed as reduction of intersegmental vessels at 0.25 uM measured at 24 hpf stage by fluorescence microscopy
# Format: functional, organism-based
# Settings: not given
row,SMILES,Activity
1,CCc1oc2ccccc2c1C(=O)c1cc(Br)c(O)c(Br)c1,Active
2,CCCCc1oc2ccccc2c1C(=O)c1ccc(O)cc1,inactive
3,CCc1oc2ccccc2c1C(=O)c1ccc(O)cc1,inactive

# Species: Danio rerio
# Test: Induction of vasculature defects in 20 hpf stage FLK1-GFP transgenic Zebrafish embryos measured at 24 hpf stage by fluorescence microscopy
# Format: functional, organism-based
# Settings: not given
row,SMILES,Activity
1,CCc1oc2ccccc2c1C(=O)c1cc(Br)c(O)c(Br)c1,inactive
2,CCCCc1oc2ccccc2c1C(=O)c1ccc(O)cc1,inactive
3,CCc1oc2ccccc2c1C(=O)c1ccc(O)cc1,inactive

# System: HUVEC
# Test: Inhibition of cell proliferation of HUVEC incubated for 3 days by WST8 dye based assay relative to control
# Format: functional, Homo sapiens
# Settings: not given
row,SMILES,inhibition (INH) [%]
1,CCc1oc2cc(O)ccc2c1C(=O)c1cc(Br)c(O)c(Br)c1,>50

# Same assay, conditions: Homo sapiens
row,SMILES,inhibition
1,CCc1oc2ccccc2c1C(=O)c1cc(Br)c(O)c(Br)c1,inactive
2,CCc1oc2ccccc2c1C(=O)c1ccc(O)cc1,inactive

# System: Aorta
# Test: Inhibition of micro-vessel branching in […] mouse aorta cultured in collagen gels assessed as attenuation of branching at 7.5 uM by aortic ring sprouting assay
# Format: functional, tissue-based
# Settings: not given
row,SMILES,inhibition
1,CCc1oc2ccc(O)cc2c1C(=O)c1cc(Br)c(O)c(Br)c1,Dose-dependent effect
2,CC(O)c1oc2ccccc2c1C(=O)c1cc(Br)c(O)c(Br)c1 (configuration not stated),Dose-dependent effect
3,CC(O)CCc1oc2ccccc2c1C(=O)c1cc(I)c(O)c(I)c1 (configuration not stated),inactive
4,Cc1oc2ccccc2c1C(=O)c1ccc(O)c(I)c1,Dose-dependent effect
5,CCCCc1oc2ccccc2c1C(=O)c1cc(I)c(O)c(I)c1,Dose-dependent effect
6,CCc1oc2cc(O)ccc2c1C(=O)c1cc(Br)c(O)c(Br)c1,Dose-dependent effect
7,Cc1oc2ccccc2c1C(=O)c1cc(I)c(O)c(I)c1,Dose-dependent effect

# Species: Danio rerio
# Test: Induction of general morphology changes in 20 hpf stage FLK1-GFP transgenic Zebrafish embryos measured at 24 hpf stage by fluorescence microscopy
# Format: functional, organism-based
# Settings: not given
row,SMILES,Activity
1,CCc1oc2ccccc2c1C(=O)c1cc(Br)c(O)c(Br)c1,inactive
2,CCCCc1oc2ccccc2c1C(=O)c1ccc(O)cc1,inactive
3,CCc1oc2ccccc2c1C(=O)c1ccc(O)cc1,inactive

# Target: T2, Protein phosphatase EYA3 (Homo sapiens) (UniProt Q99504)
# T2 sequence (whole entry): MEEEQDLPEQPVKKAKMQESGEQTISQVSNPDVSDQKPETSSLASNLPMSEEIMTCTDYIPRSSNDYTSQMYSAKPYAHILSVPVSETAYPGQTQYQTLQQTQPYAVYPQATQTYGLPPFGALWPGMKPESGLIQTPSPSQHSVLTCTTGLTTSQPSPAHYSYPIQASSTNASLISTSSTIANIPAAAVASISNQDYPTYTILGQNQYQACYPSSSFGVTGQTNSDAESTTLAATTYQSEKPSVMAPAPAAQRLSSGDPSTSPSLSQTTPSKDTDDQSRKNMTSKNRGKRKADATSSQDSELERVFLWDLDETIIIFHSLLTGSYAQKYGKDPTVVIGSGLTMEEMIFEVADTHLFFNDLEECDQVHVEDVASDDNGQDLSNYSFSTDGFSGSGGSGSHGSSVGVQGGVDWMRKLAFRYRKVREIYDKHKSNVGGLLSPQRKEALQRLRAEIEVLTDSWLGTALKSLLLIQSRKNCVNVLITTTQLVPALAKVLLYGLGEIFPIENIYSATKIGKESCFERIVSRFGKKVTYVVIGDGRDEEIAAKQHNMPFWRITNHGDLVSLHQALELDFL
# Settings: 5 to 10 uM
# Description: Inhibition of poly-histidine and GST-tagged full length human Eya3 isoform 2 (127 to 573 residues) assessed as reduction in Km at 5 to 10 uM using para-nitrophenol phosphate substrate incubated for 30 mins
row,inhibition,SMILES
1,Active,CCc1oc2ccccc2c1C(=O)c1cc(Br)c(O)c(Br)c1

# System: Aorta
# Test: Inhibition of micro-vessel branching in […] mouse aorta cultured in collagen gels assessed as reduction in initial sprouting at 7.5 uM by aortic ring sprouting assay
# Format: functional, tissue-based
# Settings: not given
row,SMILES,inhibition
1,CCc1oc2ccc(O)cc2c1C(=O)c1cc(Br)c(O)c(Br)c1,Dose-dependent effect
2,CC(O)c1oc2ccccc2c1C(=O)c1cc(Br)c(O)c(Br)c1 (configuration not stated),Dose-dependent effect
3,CC(O)CCc1oc2ccccc2c1C(=O)c1cc(I)c(O)c(I)c1 (configuration not stated),inactive
4,Cc1oc2ccccc2c1C(=O)c1ccc(O)c(I)c1,Dose-dependent effect
5,CCCCc1oc2ccccc2c1C(=O)c1cc(I)c(O)c(I)c1,Dose-dependent effect
6,CCc1oc2cc(O)ccc2c1C(=O)c1cc(Br)c(O)c(Br)c1,Dose-dependent effect
7,Cc1oc2ccccc2c1C(=O)c1cc(I)c(O)c(I)c1,Dose-dependent effect

# Target: T2, Protein phosphatase EYA3 (Homo sapiens)
# Settings: 5 to 10 uM
# Remark: another data set of the same source
# Description: Inhibition of poly-histidine and GST-tagged full length human Eya3 isoform 2 (127 to 573 residues) assessed as reduction in Vmax at 5 to 10 uM using para-nitrophenol phosphate substrate incubated for 30 mins
row,inhibition,SMILES
1,Active,CCc1oc2ccccc2c1C(=O)c1cc(Br)c(O)c(Br)c1

# Target: T2, Protein phosphatase EYA3 (Homo sapiens)
# Settings: 3 to 10 uM
# Description: Competitive inhibition of poly-histidine and GST-tagged full length human Eya3 isoform 2 (127 to 573 residues) at 3 to 10 uM using para-nitrophenol phosphate substrate incubated for 30 mins
row,inhibition,SMILES
1,inactive,CCc1oc2ccccc2c1C(=O)c1cc(Br)c(O)c(Br)c1

# Species: Danio rerio
# Test: Induction of vasculature defects in 5.25 hpf stage FLK1-GFP transgenic Zebrafish embryos assessed as reduction in intersegmental vessel number and extension measured at 24 hpf stage by fluorescence microscopy
# Format: functional, organism-based
# Settings: not given
row,SMILES,Activity
1,CCc1oc2ccccc2c1C(=O)c1cc(Br)c(O)c(Br)c1,Dose-dependent effect
2,CCCCc1oc2ccccc2c1C(=O)c1ccc(O)cc1,Dose-dependent effect
3,CCc1oc2ccccc2c1C(=O)c1ccc(O)cc1,Dose-dependent effect
